Source: patent publication US8299056B2 (Signal Pharmaceuticals, LLC, priority 2008, dated 2012)
Like-named read-outs stand apart in the source and are kept apart here.

Target: T1, Syk (Homo sapiens, UniProt P43405)
T1 construct: purchased Carna Biosciences
Experiment: Syk HTRF assay
Assay type: biochemical
Method: Test compounds were prepared at a concentration of 1.5 mM in DMSO followed by 3-fold dilutions in Greiner […] polypropylene plates. A 1:4 dilution of compounds by 8 μL/well transfer from the polypropylene plates to 24 μL/well Assay Buffer in Costar 3710 384 well black plates was then performed. Kinases (13 μL/well) or Assay Buffer only (background controls; 50 mM HEPES pH 7.6, 1 mM DTT, 10 mM MgCl2, 0.01% Triton X100, 0.01% BSA and 0.1 mM EDTA) were added to Costar 3710 384-well black plates for the HTRF assays (Carna Biosciences) and compound was added from the 1:4 dilution plate. Syk start mix (87.5 μM ATP, 80 nM Substrate Peptide (American Peptide Company 332722) was added and the mixture was incubated at room temperature for 1 hour. Syk Stop Solution (120 mM EDTA in dilution buffer) was then added to the Syk HTRF assay plate and incubated at room temperature on a shaker for 2 minutes. Syk Antibody Mix (4.86 μg/mL DyLight 647 Streptavidin (Pierce 21824); 1 μg/mL Lance Eu-Anti-Phosphotyrosine (PerkinElmer AD0069)) was added to the Syk HTRF assay plate and the mixture was further incubated at room temperature for >4 h. Time resolved fluorescence was read in assay plates on a PerkinElmer EnVision. HTRF assays were performed using 320 nm excitation, 60 μs delay, 665 nm and 615 nm emission. Data was expressed by division of 665 nm by 615 nm emissions.

[1] = activity levels A-D, read-out: Activity Level (IC50 in the Syk HTRF assay)
[2] = read-out: Activity Level (Syk HTRF assay IC50)
[3] = IC50 activity level, read-out: Activity Level

| IC50 [1] [nM] | IC50 [3] [nM] | SMILES | further results |
| --- | --- | --- | --- |
| 250 to 500 | – | OC[C@@H]1CCN(c2cccc3nc(Nc4ccc(C(F)(F)F)cc4)nn23)C1 [Example 326, (R)-(1-(2-(4-(trifluoromethyl)phenylamino)-[1,2,4]triazolo[1,5-a]pyridin-5-yl)pyrrolidin-3-yl)methanol] | – |
| 1000 to 10000 | – | O[C@H]1CC[C@H](CNc2cccc3nc(Nc4ccc(C(F)(F)F)cc4)nn23)CC1 [Example 375, trans-4-((2-(4-(trifluoromethyl)phenylamino)-[1,2,4]triazolo[1,5-a]pyridin-5-ylamino)methyl)cyclohexanol] | – |
| – | – | COc1ccc(Nc2nc3cccc(-c4ccccc4)n3n2)cn1 [compound 71, N-(6-methoxypyridin-3-yl)-5-phenyl-[1,2,4]triazolo[1,5-a]pyridin-2-amine] | IC50 [2]: 1000 to 10000 nM |
| 0.005 to 250 | – | Cc1n[nH]c2cc(Nc3nc4cccc(C[C@H]5CC[C@H](O)CC5)n4n3)ccc12 (stereo in doubt) [Example 240, trans-4-((2-(3-methyl-1H-indazol-6-ylamino)-[1,2,4]triazolo[1,5-a]pyridin-5-yl)methyl)cyclohexanol] | – |
| 0.005 to 250 | – | Nc1n[nH]c2cc(Nc3nc4cccc(CC5CCC(O)CC5)n4n3)ccc12 (centres unmarked) [Example 208, 4-((2-(3-amino-1H-indazol-6-ylamino)-[1,2,4]triazolo[1,5-a]pyridin-5-yl)methyl)cyclohexanol] | – |
| 0.005 to 250 | – | CC(c1cc[nH]c(=O)c1)c1cccc2nc(Nc3ccc(C(F)(F)F)cc3)nn12 (centres unmarked) [Example 211, 4-(1-(2-(4-(trifluoromethyl)phenylamino)-[1,2,4]triazolo[1,5-a]pyridin-5-yl)ethyl)pyridin-2(1H)-one] | – |
| – | 500 to 1000 | Cc1cc(Nc2nc3cccc(CC4CCOCC4)n3n2)cnc1N1CCOCC1 [Example 535, N-(5-methyl-6-morpholinopyridin-3-yl)-5-((tetrahydro-2H-pyran-4-yl)methyl)-[1,2,4]triazolo[1,5-a]pyridin-2-amine] | – |
| – | 500 to 1000 | NCCN1Cc2cc(-c3cccc4nc(Nc5ccccc5)nn34)ccc2C1=O [Example 494, 2-(2-aminoethyl)-5-(2-(phenylamino)-[1,2,4]triazolo[1,5-a]pyridin-5-yl)isoindolin-1-one] | – |
| 500 to 1000 | – | CC(C)(O)[C@H]1CC[C@@H](Nc2cccc3nc(Nc4ccc(C(F)(F)F)cc4)nn23)CC1 [Example 385, cis-2-(4-(2-(4-(trifluoromethyl)phenylamino)-[1,2,4]triazolo[1,5-a]pyridin-5-ylamino)cyclohexyl)propan-2-ol] | – |
| – | 0.005 to 250 | Cc1noc2cc(Nc3nc4cccc(N[C@H]5CC[C@@H](O)CC5)n4n3)ccc12 [Example 543, cis-4-(2-(3-methylbenzo[d]isoxazol-6-ylamino)-[1,2,4]triazolo[1,5-a]pyridin-5-ylamino)cyclohexanol] | – |
| – | – | O=C(NC1CCNCC1)c1ccc(Nc2nc3cccc(-c4ccccc4)n3n2)cc1 [compound 77, 4-(5-phenyl-[1,2,4]triazolo[1,5-a]pyridin-2-ylamino)-N-(piperidin-4-yl)benzamide] | IC50 [2]: 0.005 to 250 nM |
| – | 1000 to 10000 | NCCN1Cc2ccc(-c3cccc4nc(Nc5ccccc5)nn34)cc2C1=O [Example 495, 2-(2-aminoethyl)-6-(2-(phenylamino)-[1,2,4]triazolo[1,5-a]pyridin-5-yl)isoindolin-1-one] | – |
| – | – | c1ccc(-c2cccc3nc(Nc4cccnc4)nn23)cc1 [compound 75, 5-phenyl-N-(pyridin-3-yl)-[1,2,4]triazolo[1,5-a]pyridin-2-amine] | IC50 [2]: 500 to 1000 nM |
| – | 1000 to 10000 | NC(=O)c1ccc(Nc2nc3cccc(NC4CCCNC4)n3n2)cc1 (stereo in doubt) [Example 476, (R)-4-(5-(piperidin-3-ylamino)-[1,2,4]triazolo[1,5-a]pyridin-2-ylamino)benzamide] | – |
| – | – | Cc1n[nH]c2cc(Nc3nc4cccc(NC[C@H]5CC[C@H](O)C5)n4n3)ccc12 [Example 181, (1S,3S)-3-((2-(3-methyl-1H-indazol-6-ylamino)-[1,2,4]triazolo[1,5-a]pyridin-5-ylamino)methyl)cyclopentanol] | IC50 [2]: 0.005 to 250 nM |
| – | 1000 to 10000 | c1ccc(Nc2nc3cccc(-c4cccnc4)n3n2)cc1 [Example 524, N-phenyl-5-(pyridin-3-yl)-[1,2,4]triazolo[1,5-a]pyridin-2-amine] | – |
| 0.005 to 250 | – | COCc1n[nH]c2cc(Nc3nc4cccc(N[C@H]5CC[C@@H](O)CC5)n4n3)ccc12 [Example 231, cis-4-(2-(3-(methoxymethyl)-1H-indazol-6-ylamino)-[1,2,4]triazolo[1,5-a]pyridin-5-ylamino)cyclohexanol] | – |
| 1000 to 10000 | – | CC(C)(CO)Nc1cccc2nc(Nc3ccc(C(F)(F)F)cc3)nn12 [Example 358, 2-methyl-2-(2-(4-(trifluoromethyl)phenylamino)-[1,2,4]triazolo[1,5-a]pyridin-5-ylamino)propan-1-ol] | – |

| IC50 [1] [nM] | IC50 [3] [nM] | SMILES | further results |
| --- | --- | --- | --- |
| – | 1000 to 10000 | c1cc(NC2CCCNC2)n2nc(Nc3ccc4c(c3)CNC4)nc2c1 (stereo in doubt) [Example 448, (R)-N^2-(isoindolin-5-yl)-N^5-(piperidin-3-yl)-[1,2,4]triazolo[1,5-a]pyridin-2,5-diamine] | – |
| – | 0.005 to 250 | c1ccc(Nc2nc3cccc(-c4ccc5cn[nH]c5c4)n3n2)cc1 [Example 485, 5-(1H-indazol-6-yl)-N-phenyl-[1,2,4]triazolo[1,5-a]pyridin-2-amine] | – |
| 500 to 1000 | – | Cc1cc(Nc2nc3cccc(N[C@H]4CC[C@@H](O)CC4)n3n2)cc(C)n1 [Example 261, cis-4-(2-(2,6-dimethylpyridin-4-ylamino)-[1,2,4]triazolo[1,5-a]pyridin-5-ylamino)cyclohexanol] | – |
| 500 to 1000 | – | O[C@@H]1CCC[C@H]1Nc1cc(-c2cccc3nc(Nc4ccc(C(F)(F)F)cc4)nn23)ccn1 [Example 246, (1R,2R)-2-(4-(2-(4-(trifluoromethyl)phenylamino)-[1,2,4]triazolo[1,5-a]pyridin-5-yl)pyridin-2-ylamino)cyclopentanol] | – |
| – | 0.005 to 250 | Fc1ccc(Nc2nc3cccc(N[C@H]4CCCNC4)n3n2)cc1 [Example 465, (S)-N^2-(4-fluorophenyl)-N^5-(piperidin-3-yl)-[1,2,4]triazolo[1,5-a]pyridine-2,5-diamine] | – |
| – | – | Cc1n[nH]c2ccc(Nc3nc4cccc(CC5CCOCC5)n4n3)cc12 [compound 116, N-(3-methyl-1H-indazol-5-yl)-5-((tetrahydro-2H-pyran-4-yl)methyl)-[1,2,4]triazolo[1,5-a]pyridin-2-amine] | IC50 [2]: 0.005 to 250 nM |
| – | – | Cc1n[nH]c2cc(Nc3nc4cccc(N[C@H]5CCOC5)n4n3)ccc12 [Example 182, (S)-N^2-(3-methyl-1H-indazol-6-yl)-N^5-(tetrahydrofuran-3-yl)-[1,2,4]triazolo[1,5-a]pyridin-2,5-diamine] | IC50 [2]: 250 to 500 nM |
| – | 1000 to 10000 | Oc1cc(-c2cccc3nc(Nc4ccccc4)nn23)ccn1 [Example 517, 4-(2-(phenylamino)-[1,2,4]triazolo[1,5-a]pyridin-5-yl)pyridin-2-ol] | – |
| 1000 to 10000 | – | CC1CN(Cc2cccc3nc(Nc4ccc(C(F)(F)F)cc4)nn23)CC(=O)N1 (centres unmarked) [Example 282, 6-methyl-4-((2-(4-(trifluoromethyl)phenylamino)-[1,2,4]triazolo[1,5-a]pyridin-5-yl)methyl)piperazin-2-one] | – |
| – | – | CNC(=O)c1ccc(Nc2nc3cccc(-c4cccc(OC)c4)n3n2)cc1 [compound 20, 4-(5-(3-methoxyphenyl)-[1,2,4]triazolo[1,5-a]pyridin-2-ylamino)-N-methylbenzamide] | IC50 [2]: 250 to 500 nM |
| – | – | NCCN1Cc2cc(Nc3nc4cccc(-c5ccccc5)n4n3)ccc2C1=O [compound 45, 2-(2-aminoethyl)-5-(5-phenyl-[1,2,4]triazolo[1,5-a]pyridin-2-ylamino)isoindolin-1-one] | IC50 [2]: 250 to 500 nM |
| – | 0.005 to 250 | COCc1nc2ccc(-c3cccc4nc(Nc5ccc(C(F)(F)F)cc5)nn34)cc2[nH]1 [Example 401, 5-(2-(methoxymethyl)-1H-benzo[d]imidazol-6-yl)-N-(4-(trifluoromethyl)phenyl)-[1,2,4]triazolo[1,5-a]pyridin-2-amine] | – |
| – | – | O=S1(=O)NCc2ccc(Nc3nc4cccc(-c5ccccc5)n4n3)cc21 [compound 37] | IC50 [2]: 0.005 to 250 nM |
| – | – | N#Cc1cccc(-c2cccc3nc(Nc4ccc(C(N)=O)cc4)nn23)c1 [compound 63, 4-(5-(3-cyanophenyl)-[1,2,4]triazolo[1,5-a]pyridin-2-ylamino)benzamide] | IC50 [2]: 250 to 500 nM |
| 1000 to 10000 | – | CNC(=O)c1ccc(Nc2nc3cccc(CC4CCC(O)C4)n3n2)cc1 (single isomer, unassigned; diastereomer 1) [Example 232, 4-(5-((3-hydroxycyclopentyl)methyl)-[1,2,4]triazolo[1,5-a]pyridin-2-ylamino)-N-methylbenzamide (diastereomer 1)] | – |
| 0.005 to 250 | – | OCCNc1cc(-c2cccc3nc(Nc4ccc(C(F)(F)F)cc4)nn23)ccn1 [Example 312, 2-(4-(2-(4-(trifluoromethyl)phenylamino)-[1,2,4]triazolo[1,5-a]pyridin-5-yl)pyridin-2-ylamino)ethanol] | – |
| 1000 to 10000 | – | OCC1CCCN(Cc2cccc3nc(Nc4ccc(C(F)(F)F)cc4)nn23)C1 (centres unmarked) [Example 273, (1-((2-(4-(trifluoromethyl)phenylamino)-[1,2,4]triazolo[1,5-a]pyridin-5-yl)methyl)piperidin-3-yl)methanol] | – |
